Experimental data published in patent publication US6875578B2, “System for cell-based screening” (priority 1997, dated 2005).
Entries after “also recorded” stand apart in the source; their conditions may differ.

Experiments:
Format in all cases: cell-based
SNB-19 cells = test: High-content screen of paclitaxel-induced apoptosis, SNB-19 cells; conditions: 26 h
Description: The cells chosen for this study were mouse connective tissue fibroblasts (L-929; ATCC CCL-1) and a highly invasive glioblastoma cell line (SNB-19; ATCC CRL-2219) (Welch et al., In Vitro Cell. Dev. Bid. 31:610, 1995). The day before treatment with an apoptosis inducing drug, 3500 cells were placed into each well of a 96-well plate and incubated overnight at 37° C. in a humidified 5% CO2 atmosphere. The following day, the culture medium was removed from each well and replaced with fresh medium containing various concentrations of paclitaxel (0-50 μM) from a 20 mM stock made in DMSO. The maximal concentration of DMSO used in these experiments was 0.25%. The cells were then incubated for 26 h as above. At the end of the paclitaxel treatment period, each well received fresh medium containing 750 nM MITOTRACKER™ Red (Molecular Probes; Eugene, Oreg.) and 3 μg/ml Hoechst 33342 DNA-binding dye (Molecular Probes) and was incubated as above for 20 mm. Each well on the plate was then washed with HBSS and fixed with 3.7% formaldehyde in HBSS for 15 mm at room temperature. […] The fluorescence signals from plates stored this way were stable for at least two weeks after preparation. As in the nuclear translocation assay, fluorescence reagents can be designed to convert this assay into a live cell high-content screen.
The fluorescence intensity of intracellular MITOTRACKER™ Red, Hoechst 33342, and BODIPY™ FL phallacidin was measured with the cell screening system as described supra. […]
A total of 50-250 cells were measured per image field. For each field of cells, the following calculations were performed: (1) The average nuclear area (μm^2) was calculated by dividing the total nuclear area in a field by the number of nuclei detected. (2) The average nuclear perimeter (μm) was calculated by dividing the sum of the perimeters of all nuclei in a field by the number of nuclei detected in that field. […] (3) The average nuclear brightness was calculated by dividing the integrated intensity of the entire field of nuclei by the number of nuclei in that field. […]

BHK cells = test: Apoptosis actin reorganization (f-actin content), BHK cells; conditions: 30 hours
Description: (§1) Cells were plated in 96-well plates at densities of 3×10^3 to 1×10^4 cells/well. The following day apoptotic inducers were added at indicated concentrations. Cells were incubated for the indicated time periods (usually 16-30 hours). The next day the medium was removed and cells were stained with 5 μg/ml Hoechst (Molecular Probes, Inc.) in fresh medium and incubated for 30 minutes at […]. Cells were washed in HBSS and fixed with 3.7% formaldehyde in HBSS at room temperature. Plates were washed with HBSS and permeabilized with 0.5% v/v Triton X-100 in HBSS at room temperature. Plates were washed in HBSS and stained with 100 μl of 1 U/ml of Alexa 488 Phalloidin stock (100 μl/well, Molecular Probes, Inc.). Cells were washed 2×with HBSS at RT and the plate was sealed.
(§2) Quantitation of f-actin content was accomplished by measuring the intensity of phalloidin staining around the nucleus. This was determined to be a reasonable approximation of a full cytoplasmic average of the intensity. The mask used to approximate this cytoplasmic measure was derived from the nuclear mask defined by the Hoechst stain. Derivation was accomplished by combinations of erosions and dilations.

MCF-7 cells = test: Apoptosis actin reorganization (f-actin content), MCF-7 cells; conditions: 30 hours
Description: as §1, §2

With `CC(=O)O[C@H]1C(=O)[C@@]2(C)[C@H]([C@H](OC(=O)c3ccccc3)[C@]3(O)C[C@H](OC(=O)[C@H](O)[C@@H](NC(=O)c4ccccc4)c4ccccc4)C(C)=C1C3(C)C)[C@]1(OC(C)=O)CO[C@@H]1C[C@@H]2O` [paclitaxel] as the compound, how does the mitochondrial potential (SNB-19 cells; 10 nM paclitaxel) read?
Its mitochondrial potential is “minimal at the same concentration of paclitaxel”.

And the “concentration at which area, brightness, and fragmentation of the nucleus and actin polymerization values reached a maximum value” (SNB-19 cells)?
The value was 10 nM.

And the “all the parameters measured at increasing concentrations” value (SNB-19 cells; >10 nM paclitaxel)?
The value was “approached control levels”.

And the “change in peri-nuclear f-actin content” value (BHK cells)?
The value was “results that are more variable”.

What about the “change in peri-nuclear f-actin content” value (BHK cells; listed as Paclitaxel) of the same compound?
The value was “highly variable”.

What about the “change in peri-nuclear f-actin content” value (MCF-7 cells) of the same compound?
The value was “highly variable; also recorded: highly variable and not significant”.
